Assay results from patent publication US8076338B2, “Kinase modulators and methods of use” (Exelixis, Inc., priority 2004, dated 2011).
Where two headings read alike, the source gives them in different places.

Key:
AktK = AktK (Homo sapiens, UniProt P31749); assay: Luciferase-coupled chemiluminescence kinase assay (ATP consumption); format: biochemical; settings: read-out: AKT-1 IC50
Summary of the method: (§1)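 Activity is read as ATP depletion: luciferase-luciferin reagent added after a 3 h ambient-temperature kinase reaction, with total ATP use limited to 25-60%. Before ATP addition, 2.5-5 nM kinase and compound were preincubated 30 min in Tris pH 7.5/MgCl2/TX-100/DTT buffer; […].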

p70S6K = p70S6K (Homo sapiens, UniProt P23443); assay: as above; format: biochemical
Sequence of p70S6K (P23443 whole entry): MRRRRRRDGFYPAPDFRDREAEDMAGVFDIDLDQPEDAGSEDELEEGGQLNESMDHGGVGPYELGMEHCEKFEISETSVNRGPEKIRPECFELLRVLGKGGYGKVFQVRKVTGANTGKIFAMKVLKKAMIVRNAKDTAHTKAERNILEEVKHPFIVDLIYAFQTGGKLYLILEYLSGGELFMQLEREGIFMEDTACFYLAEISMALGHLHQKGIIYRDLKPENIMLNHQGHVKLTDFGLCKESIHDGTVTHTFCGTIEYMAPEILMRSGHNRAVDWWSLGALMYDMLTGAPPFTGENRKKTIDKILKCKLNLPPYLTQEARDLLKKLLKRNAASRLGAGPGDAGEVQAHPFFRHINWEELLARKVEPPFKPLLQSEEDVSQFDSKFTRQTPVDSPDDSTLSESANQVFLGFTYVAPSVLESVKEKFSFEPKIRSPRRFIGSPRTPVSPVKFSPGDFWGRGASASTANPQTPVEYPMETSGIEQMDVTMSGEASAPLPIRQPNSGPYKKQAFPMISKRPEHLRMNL
Summary of the method: as §1

Sequence of AktK (P31749 whole entry): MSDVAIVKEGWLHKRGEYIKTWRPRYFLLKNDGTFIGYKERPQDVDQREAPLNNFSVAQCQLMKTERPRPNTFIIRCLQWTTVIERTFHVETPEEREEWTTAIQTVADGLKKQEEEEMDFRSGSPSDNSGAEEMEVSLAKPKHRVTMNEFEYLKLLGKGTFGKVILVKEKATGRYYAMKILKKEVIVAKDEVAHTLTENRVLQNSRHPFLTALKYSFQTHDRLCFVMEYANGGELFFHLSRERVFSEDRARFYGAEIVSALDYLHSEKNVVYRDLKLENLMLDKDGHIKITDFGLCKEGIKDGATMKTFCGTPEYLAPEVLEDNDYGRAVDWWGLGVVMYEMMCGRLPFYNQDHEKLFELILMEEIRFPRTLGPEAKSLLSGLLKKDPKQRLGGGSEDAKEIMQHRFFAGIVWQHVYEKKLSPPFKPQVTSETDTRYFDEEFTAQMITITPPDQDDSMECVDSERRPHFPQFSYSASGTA

| Compound | IC50 (AktK; Table 1, class symbols per key) | IC50 (p70S6K; Table 1, class symbols per key) | IC50 (AktK) | IC50 (p70S6K) |
| --- | --- | --- | --- | --- |
| CCc1n[nH]c2ncnc(N3CCN(c4cc(Cl)cc(OCCN5CCN(CC)CC5)c4C)CC3)c12 [Entry 25, 4-[4-(5-chloro-3-{[2-(4-ethylpiperazin-1-yl)ethyl]oxy}-2-methylphenyl)piperazin-1-yl]-3-ethyl-1H-pyrazolo[3,4-d]pyrimidine] | 1 to 10 µM | < 0.1 µM |  |  |
| Cc1c(NCCN(C)C)cc(C(=O)Nc2ccccc2)cc1N1CCN(c2ncnc3[nH]nc(Br)c23)CC1 [Entry 225, 3-[4-(3-bromo-1H-pyrazolo[3,4-d]pyrimidin-4-yl)piperazin-1-yl]-5-{[2-(dimethylamino)eth-yl]amino}-4-methyl-N-phenylbenzamide] | < 0.1 µM | < 0.1 µM |  |  |
| CCc1n[nH]c2ncnc(N3CCN(c4cccc(Cl)c4)C(C(=O)O)C3)c12 (centres unmarked) [Entry 352, 1-(3-chlorophenyl)-4-(3-ethyl-1H-pyrazolo[3,4-d]pyrimidin-4-yl)piperazine-2-carboxylic acid] |  |  | ≥ 10 µM | 0.1 to 1 µM |
| Cc1c(OCCCN2CCOCC2)cc(Cl)cc1N1CCN(c2ncnc3[nH]nc(Br)c23)CC1 [Entry 38, 3-bromo-4-(4-{5-chloro-2-methyl-3-[(3-morpholin-4-ylpropyl)oxy]phenyl}piperazin-1-yl)-1H-pyrazolo[3,4-d]pyrimidine] | 0.1 to 1 µM | < 0.1 µM |  |  |
| Clc1cccc(N2CCN(c3ncnc4[nH]cnc34)CC2)c1 [Entry 294, 6-[4-(3-chlorophenyl)piperazin-1-yl]-9H-purine] |  |  | ≥ 10 µM | 0.1 to 1 µM |
| Cc1ccc(N2CCN(c3ncnc4[nH]nc(Br)c34)CC2)cc1NCCN1CCCC1 [Entry 57, 5-[4-(3-bromo-1H-pyrazolo[3,4-d]pyrimidin-4-yl)piperazin-1-yl]-2-methyl-N-(2-pyrrolidin-1-ylethyl)aniline] | 1 to 10 µM | 0.1 to 1 µM |  |  |
| Cc1c(NCCN2CCCC2)cc(OCC2CCCO2)cc1N1CCN(c2ncnc3[nH]nc(Br)c23)CC1 (centres unmarked) [Entry 222, 3-[4-(3-bromo-1H-pyrazolo[3,4-d]pyrimidin-4-yl)piperazin-1-yl]-2-methyl-N-(2-pyrrolidin-1-ylethyl)-5-[(tetrahydrofuran-2-ylmethyl)oxy]aniline] | < 0.1 µM | < 0.1 µM |  |  |
| COC(=O)c1cc(NCCN2CCCC2)c(C)c(N2CCN(c3ncnc4[nH]nc(Br)c34)CC2)c1 [Entry 190, methyl 3-[4-(3-bromo-1H-pyrazolo[3,4-d]pyrimidin-4-yl)piperazin-1-yl]-4-methyl-5-[(2-pyrrolidin-1-ylethyl)amino]benzoate] | < 0.1 µM | < 0.1 µM |  |  |
| Cc1ccc(Cl)cc1N1CCN(c2ncnc3[nH]nc(C#CCN4CCCC4)c23)CC1 [Entry 397, 4-[4-(5-chloro-2-methylphenyl)piperazin-1-yl]-3-(3-pyrrolidin-1-ylprop-1-yn-1-yl)-1H-pyrazolo[3,4-d]pyrimidine] |  |  | 1 to 10 µM | 0.1 to 1 µM |
| CCc1n[nH]c2ncnc(N3CCN(c4cc(Cl)cc(OCCCN5CCN(C)CC5)c4C)CC3)c12 [Entry 36, 4-[4-(5-chloro-2-methyl-3-{[3-(4-methylpiperazin-1-yl)propyl]oxy}phenyl)piperazin-1-yl]-3-ethyl-1H-pyrazolo[3,4-d]pyrimidine] | 0.1 to 1 µM | < 0.1 µM |  |  |
| Cc1cccc(N2CCN(c3ncnc4[nH]nc(Br)c34)CC2C)c1 (centres unmarked) [Entry 158, 3-bromo-4-[3-methyl-4-(3-methylphenyl)piperazin-1-yl]-1H-pyrazolo[3,4-d]pyrimidine] | 1 to 10 µM | < 0.1 µM |  |  |
| Cc1c(CCCN2CCCC2)cc(OCC(C)C)cc1N1CCN(c2ncnc3[nH]nc(Br)c23)CC1 [Entry 240, 3-bromo-4-{4-[2-methyl-5-[(2-methylpropyl)oxy]-3-(3-pyrrolidin-1-ylpropyl)phenyl]piperazin-1-yl}-1H-pyrazolo[3,4-d]pyrimidine] | < 0.1 µM | < 0.1 µM |  |  |
| Cc1c(NCCN2CCCC2)cc(Cl)cc1N1CCN(c2ncnc3[nH]nc(CC(C)C)c23)CC1 [Entry 162, 5-chloro-2-methyl-3-{4-[3-(2-methylpropyl)-1H-pyrazolo[3,4-d]pyrimidin-4-yl]piperazin-1-yl}-N-(2-pyrrolidin-1-ylethyl)aniline] | 0.1 to 1 µM | < 0.1 µM |  |  |
| 4-[4-(5-chloro-2-methylphenyl)piperazin-1-yl]-3-(3-pyrrolidin-1-ylpropyl)-1H-pyrazolo[3,4-d]pyrimidine [Entry 400] |  |  | 1 to 10 µM | 1 to 10 µM |
| CCc1n[nH]c2ncnc(N3CCN(c4cc(Cl)cc(OC)c4)CC3)c12 [Entry 113, 4-{4-[3-chloro-5-(methyloxy)phenyl]piperazin-1-yl}-3-ethyl-1H-pyrazolo[3,4-d]pyrimidine] | ≥ 10 µM | < 0.1 µM |  |  |
| Cc1ccc(Cl)cc1N1CCN(c2ncnc3[nH]nc(-c4ccc(OCCCN(C)C)cc4)c23)CC1 [Entry 380, 3-[(4-{4-[4-(5-chloro-2-methylphenyl)piperazin-1-yl]-1H-pyrazolo[3,4-d]pyrimidin-3-yl}phenyl)oxy]-N,N-dimethylpropan-1-amine] |  |  | 1 to 10 µM | 1 to 10 µM |

| Compound | IC50 (AktK; Table 1, class symbols per key) | IC50 (p70S6K; Table 1, class symbols per key) | IC50 (AktK) | IC50 (p70S6K) |
| --- | --- | --- | --- | --- |
| Clc1cccc(N2CCN(c3ncnc4[nH]ncc34)CC2)c1 [Entry 298, 4-[4-(3-chlorophenyl)piperazin-1-yl]-1H-pyrazolo[3,4-d]pyrimidine] |  |  | ≥ 10 µM | 0.1 to 1 µM |
| Cc1c(OCCCN2CCOCC2)cc(Cl)cc1N1CCN(c2ncnc3[nH]nc(C(F)(F)F)c23)CC1 [Entry 40, 4-(4-{5-chloro-2-methyl-3-[(3-morpholin-4-ylpropyl)oxy]phenyl}piperazin-1-yl)-3-(trifluoromethyl)-1H-pyrazolo[3,4-d]pyrimidine] | 1 to 10 µM | < 0.1 µM |  |  |
| Cc1c(NCCN2CCCC2)cc(OCC2CCCCC2)cc1N1CCN(c2ncnc3[nH]nc(Br)c23)CC1 [Entry 217, 3-[4-(3-bromo-1H-pyrazolo[3,4-d]pyrimidin-4-yl)piperazin-1-yl]-5-[(cyclohexylmethyl)oxy]-2-methyl-N-(2-pyrrolidin-1-ylethyl)aniline] | 0.1 to 1 µM | < 0.1 µM |  |  |
| Cc1ccc(Cl)cc1N1CCN(c2ncnc3[nH]nc(CC4CCNCC4)c23)CC1 [Entry 394, 4-[4-(5-chloro-2-methylphenyl)piperazin-1-yl]-3-(piperidin-4-ylmethyl)-1H-pyrazolo[3,4-d]pyrimidine] |  |  | 1 to 10 µM | 1 to 10 µM |
| Cc1c(CCCN2CCCCC2)cc(Cl)cc1N1CCN(c2ncnc3[nH]nc(Br)c23)CC1 [Entry 27, 3-bromo-4-{4-[5-chloro-2-methyl-3-(3-piperidin-1-ylpropyl)phenyl]piperazin-1-yl}-1H-pyrazolo[3,4-d]pyrimidine] | < 0.1 µM | < 0.1 µM |  |  |
| Cc1c(OCCN2CCCCC2)cc(Cl)cc1N1CCN(c2ncnc3[nH]nc(Br)c23)CC1 [Entry 20, 3-bromo-4-(4-{5-chloro-2-methyl-3-[(2-piperidin-1-ylethyl)oxy]phenyl}piperazin-1-yl)-1H-pyrazolo[3,4-d]pyrimidine] | 0.1 to 1 µM | < 0.1 µM |  |  |
| CCN(CC)CCCOc1cc(Cl)cc(N2CCN(c3ncnc4[nH]nc(C(F)(F)F)c34)CC2)c1C [Entry 56, 3-[(5-chloro-2-methyl-3-{4-[3-(trifluoromethyl)-1H-pyrazolo[3,4-d]pyrimidin-4-yl]piperazin-1-yl}phenyl)oxy]-N,N-diethylpropan-1-amine] | 0.1 to 1 µM | < 0.1 µM |  |  |
| 3-bromo-4-{4-[5-{[2,3-difluoro-2-(fluorometh-yl)propyl]oxy}-2-methyl-3-(3-pyrrolidin-1-ylpropyl)phenyl]piperazin-1-yl}-1H-pyrazolo[3,4-d]pyrimidine [Entry 239] | < 0.1 µM | < 0.1 µM |  |  |
| CCc1n[nH]c2ncnc(N3CCN(c4cc(Cl)c(OCCN(C)C)cc4C)CC3)c12 [Entry 389, 2-({2-chloro-4-[4-(3-ethyl-1H-pyrazolo[3,4-d]pyrimidin-4-yl)piperazin-1-yl]-5-methylphenyl}oxy)-N,N-dimethylethanamine] |  |  | 1 to 10 µM | 0.1 to 1 µM |
| Cc1c(NCCN2CCCC2)cc(C(=O)N2CCCC2)cc1N1CCN(c2ncnc3[nH]nc(Br)c23)CC1 [Entry 201, 3-[4-(3-bromo-1H-pyrazolo[3,4-d]pyrimidin-4-yl)piperazin-1-yl]-2-methyl-5-(pyrrolidin-1-ylcarbonyl)-N-(2-pyrrolidin-1-ylethyl)aniline] | 0.1 to 1 µM | < 0.1 µM |  |  |
| CCOCc1cc(NCCN2CCCC2)c(C)c(N2CCN(c3ncnc4[nH]nc(Br)c34)CC2)c1 [Entry 272, 3-[4-(3-bromo-1H-pyrazolo[3,4-d]pyrimidin-4-yl)piperazin-1-yl]-5-[(ethyloxy)methyl]-2-methyl-N-(2-pyrrolidin-1-ylethyl)aniline] | < 0.1 µM | < 0.1 µM |  |  |
| CCc1n[nH]c2ncnc(N3CCN(c4cc(Cl)cc(CCCN5CCN(C)CC5)c4C)CC3)c12 [Entry 62, 4-(4-{5-chloro-2-methyl-3-[3-(4-methylpiperazin-1-yl)propyl]phenyl}piperazin-1-yl)-3-ethyl-1H-pyrazolo[3,4-d]pyrimidine] | 0.1 to 1 µM | < 0.1 µM |  |  |
| Cc1ccc(Cl)cc1N1CCN(c2ncnc3[nH]nc(-c4ccc(O)cc4)c23)CC1 [Entry 331, 4-{4-[4-(5-chloro-2-methylphenyl)piperazin-1-yl]-1H-pyrazolo[3,4-d]pyrimidin-3-yl}phenol] |  |  | 1 to 10 µM | < 0.1 µM |
| Cc1ccc(Cl)cc1N1CCN(c2ncnc3[nH]nc(-c4ccc5c(c4)OCO5)c23)CC1 [Entry 337, 3-(1,3-benzodioxol-5-yl)-4-[4-(5-chloro-2-methyl-phenyl)piperazin-1-yl]-1H-pyrazolo[3,4-d]pyrimidine] |  |  | 1 to 10 µM | 0.1 to 1 µM |
| Cc1c(NCCN(C)C)cc(OCC(C)(C)F)cc1N1CCN(c2ncnc3[nH]nc(Br)c23)CC1 [Entry 226, N′-{3-[4-(3-bromo-1H-pyrazolo[3,4-d]pyrimidin-4-yl)piperazin-1-yl]-5-[(2-fluoro-2-methylpropyl)oxy]-2-methylphenyl}-N,N-dimethyl-ethane-1,2-diamine] | < 0.1 µM | < 0.1 µM |  |  |
